According to patent US20080306055A1, “Heterocyclic Mchr1 Antagonists And Their Use In Therapy” (ASTRAZENECA AB, priority 2004, published 2008):

How the values were obtained:
[1] = molecular target: T1, recombinant hMCHr1 (Homo sapiens, UniProt Q99705); assay: MCHr1 functional assay ([35S]GTPγS binding, membranes); format: biochemical; conditions: ED80 concentration of MCH, antagonist mode
T1 construct: purchased Euroscreen
Protocol: Membranes expressing recombinant hMCHr1 ([…] protein; Euroscreen) were prepared in assay buffer (50 mM HEPES, 100 mM NaCl, 5 mM MgCl2, 1 mM EDTA, 200 μM DTT, 20 μM GDP (Sigma) containing 0.1 μg/ml BSA, pH7.4) before assay. The assays were performed using membranes at 6 μg/well in an assay volume of 200 μL and the appropriate concentrations of compounds prepared in DMSO. The reaction was started by addition of 0.056 nM [^35S]GTPγS (Specific activity >1000 Ci/mmol; Amersham) and an ED80 concentration of MCH (determined for each membrane and each MCH batch). Non-specific binding was determined using 20 μM non-radiolabelled GTPγS. Plates were incubated for 45 min at 30° C. Free and bound GTPγS were separated by filtration binding using GF/B filter mats presoaked in wash buffer (50 mM Tris, 5 mM MgCl2, 50 mM NaCl, pH 7.4) using a Micro96 cell harvester (Skatron Instruments) and the filters then dried at 50° C. before counting using a 1450 Microbeta TRILUX (Wallac).
Data are means ±SD for experiments performed in triplicate. IC50 values of antagonists were determined using non-linear regression analysis of concentration response curves using Activity Base. For instance, the following IC50 values were obtained for the compounds of the following examples: […]

[2] = molecular target: T2, human Melanin concentrating hormone receptor 1 (hMCHr1) (Homo sapiens, UniProt Q99705); assay: MCH1 receptor radioligand binding (125I-MCH, CHO-K1 membranes); conditions: 125I-MCH displacement, membranes from CHO-K1 cells expressing hMCHr1; read-out: IC50 in human MCHr1 binding assay
T2 construct: purchased Euroscreen; host or cells: CHO-K1
Protocol: MCH1 Receptor Radioligand Binding.
Assays were performed on membranes prepared from CHO-K1 cells expressing the human Melanin concentrating hormone receptor 1 (hMCHr1, 5.45 pmol/mg protein; Euroscreen). Assays were performed in a 96-well plate format in a final reaction volume of 200 μl per well. Each well contained 6 μg of membrane proteins diluted in binding buffer (50 mM Tris, 3 mM MgCl2, 0.05% bovine serum albumin and the radioligand ^125I-MCH (IM344 Amersham) was added to give 10 000 cpm (counts per minute) per well. Each well contained 2 μl of the appropriate concentration of competitive antagonist prepared in DMSO and left to stand at 30° C. for 60 minutes. Non-specific binding was determined as that remaining following incubation with […] MCH (Melanin concentrating hormone, H-1482 Bachem). The reaction was terminated by transfer of the reaction to GF/A filters using a Micro96 Harvester (Skatron Instruments, Norway). Filters were washed with assay buffer. Radioligand retained on the filters was quantified using a 1450 Microbeta TRILUX (Wallac, Finland).
Non-specific binding was subtracted from all values determined. Maximum binding was that determined in the absence of any competitor following subtraction of the value determined for non-specific binding. Binding of compounds at various concentrations was plotted according to the equation
A is the bottom plateau of the curve i.e. the final minimum y value
B is the top of the plateau of the curve i.e. the final maximum y value
C is the x value at the middle of the curve. This represents the log EC50 value when A+B=100
D is, the slope factor. x is the original known x values. y is the original known y values.

[3] = molecular target: HERG (Homo sapiens, UniProt Q12809); assay: HERG activity (planar-array-based voltage clamp); format: cell-based; conditions: modified planar-array voltage clamp method
Protocol: HERG testing was performed using a modified version of the method described by Kiss L, Bennett P B, Uebele V N, Koblan K S, Kane S A, Neagle B, Schroeder K. “High throughput ion-channel pharmacology: planar-array-based voltage clamp” Assay Drug Dev Technol. 1, 127-35. (2003).

T2 sequence (Q99705 whole entry): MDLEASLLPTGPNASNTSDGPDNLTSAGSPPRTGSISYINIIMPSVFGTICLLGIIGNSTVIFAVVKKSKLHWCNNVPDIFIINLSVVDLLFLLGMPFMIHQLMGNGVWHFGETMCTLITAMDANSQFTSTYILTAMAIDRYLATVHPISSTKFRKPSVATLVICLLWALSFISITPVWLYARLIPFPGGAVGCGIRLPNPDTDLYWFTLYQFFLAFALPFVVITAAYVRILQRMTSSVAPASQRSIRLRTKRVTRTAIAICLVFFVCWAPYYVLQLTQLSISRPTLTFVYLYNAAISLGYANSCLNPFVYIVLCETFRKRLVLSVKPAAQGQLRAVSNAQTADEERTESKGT
T1 sequence (Q99705 whole entry): as above
HERG, sequence (Q12809 whole entry): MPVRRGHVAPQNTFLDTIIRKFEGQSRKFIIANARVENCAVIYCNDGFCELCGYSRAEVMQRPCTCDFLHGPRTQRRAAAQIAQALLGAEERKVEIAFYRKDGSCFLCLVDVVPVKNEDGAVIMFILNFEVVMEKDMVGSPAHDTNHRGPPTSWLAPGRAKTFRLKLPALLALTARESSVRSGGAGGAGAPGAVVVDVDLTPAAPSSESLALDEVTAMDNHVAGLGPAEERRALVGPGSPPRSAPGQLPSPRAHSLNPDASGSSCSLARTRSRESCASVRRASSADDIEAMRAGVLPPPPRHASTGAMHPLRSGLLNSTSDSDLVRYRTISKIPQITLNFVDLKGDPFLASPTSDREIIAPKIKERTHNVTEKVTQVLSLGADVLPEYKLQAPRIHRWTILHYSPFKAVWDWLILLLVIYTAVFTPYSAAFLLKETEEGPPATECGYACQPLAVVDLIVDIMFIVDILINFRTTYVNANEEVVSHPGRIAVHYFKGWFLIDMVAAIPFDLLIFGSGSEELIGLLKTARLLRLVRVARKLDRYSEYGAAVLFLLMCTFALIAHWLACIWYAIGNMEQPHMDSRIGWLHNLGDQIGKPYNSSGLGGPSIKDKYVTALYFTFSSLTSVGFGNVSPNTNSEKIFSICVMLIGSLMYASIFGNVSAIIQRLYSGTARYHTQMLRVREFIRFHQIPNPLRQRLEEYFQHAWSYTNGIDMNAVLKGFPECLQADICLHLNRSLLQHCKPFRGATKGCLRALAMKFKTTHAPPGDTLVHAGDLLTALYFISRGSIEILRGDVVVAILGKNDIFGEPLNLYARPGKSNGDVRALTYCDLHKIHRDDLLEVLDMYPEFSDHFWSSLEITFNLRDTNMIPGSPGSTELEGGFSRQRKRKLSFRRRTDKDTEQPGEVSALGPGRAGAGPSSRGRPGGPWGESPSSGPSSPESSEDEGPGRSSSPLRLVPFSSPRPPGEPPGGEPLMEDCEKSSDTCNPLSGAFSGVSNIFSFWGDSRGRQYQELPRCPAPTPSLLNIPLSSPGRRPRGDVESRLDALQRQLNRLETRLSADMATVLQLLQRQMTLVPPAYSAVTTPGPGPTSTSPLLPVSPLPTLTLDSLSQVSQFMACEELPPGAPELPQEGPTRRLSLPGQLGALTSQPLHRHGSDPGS

Structure (SMILES) | IC50 [1] | IC50 [2] | IC50 [3]
O=C(NC1CCN(Cc2ccn(-c3ccc(C(F)(F)F)cc3)c2)CC1)C(c1ccccc1)c1ccccc1 [Example 1, 2,2-diphenyl-N-[1-({1-[4-(trifluoromethyl)phenyl]-1H-pyrrol-3-yl}methyl)piperidin-4-yl]acetamide] | 42 nM | – | –
CC(O)CCNC(=O)NC1CCN(Cc2ccn(-c3ccc(C(F)(F)F)cc3)c2)CC1 (stereo not drawn) [Example 76, N-(3-hydroxybutyl)-N′-[1-({1-[4-(trifluoromethyl)phenyl]-1H-pyrrol-3-yl}methyl)piperidin-4-yl]urea] | – | – | > 5 µM
O=C(NCCc1ccccc1)C1CCN(Cc2ccn(-c3ccc(C(F)(F)F)cc3)c2)CC1 [Example 3, N-(2-phenylethyl)-1-({1-[4-(trifluoromethyl)phenyl]-1H-pyrrol-3-yl}methyl)piperidine-4-carboxamide] | – | 14 nM | –

More lines, main results first:

IC50 [1] | IC50 [2] | Structure (SMILES) | IC50 [3]
112 nM | 12 nM | O=C(CC1CCN(Cc2ccn(-c3ccc(C(F)(F)F)cc3)c2)CC1)NCc1ccc(F)c(F)c1 [Example 2, N-(3,4-difluorobenzyl)-2-[1-({1-[4-(trifluoromethyl)phenyl]-1H-pyrrol-3-yl}methyl)piperidin-4-yl]acetamide] | –
– | 72 nM | O=C(Nc1ccc(Cl)cc1Cl)NC1CCN(Cc2ccn(-c3ccc(C(F)(F)F)cc3)c2)CC1 [Example 6, N-(2,4-dichlorophenyl)-N′-[1-({1-[4-(trifluoromethyl)phenyl]-1H-pyrrol-3-yl}methyl)piperidin-4-yl]urea] | –
